Results taken from article PMC5933338 (Drug Design, Development and Therapy, 2018).

Target: wild type (WT) A/M2 protein (Influenza A virus, UniProt P0DOF5)
Test: cell-based

Chain of wild type (WT) A/M2 protein (P0DOF5 whole entry, looked up): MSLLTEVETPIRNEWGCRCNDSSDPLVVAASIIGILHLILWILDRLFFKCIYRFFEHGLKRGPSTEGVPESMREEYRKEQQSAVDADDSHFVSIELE

CCCCNC(C)C12CC3CC(CC(C3)C1)C2 (centres unmarked) [Compound 5a, (1-Adamantan-1-yl-ethyl)-butyl-amine]
M2 WT inhibitory activity relative to that of 4c (100 µM, 5a versus rimantadine dimer 4c): approximately fourfold
inhibition at 100 µM (read-out: percentage inhibition of A/M2 current (WT)): 40%
